Source: the supplement of paper PMC10883282

Columns and labels:
Test in all cases: relative viability vs DMSO control (72 h) (fraction); higher = more viable cells
[1] = tested on: RD-ES
Method in brief: (§1)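 ATPLite readings, expressed as percent growth and averaged over up to triplicate wells, provided relative viability. Before reading, sarcoma cell lines seeded in 384-well plates to reach 80–90% confluence received 2.5 µl of serially diluted compound after 24 h, from source plates of 10 mM to 0.0002 mM. Plates were held 72 h at 37 °C, 5% CO2, with 0.1% DMSO as vehicle and a 5 µM positive control. The data were rescaled to 1 for full and 0 for none.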

[2] = tested on: HS729
Method in brief: as §1

[3] = tested on: RD
Method in brief: as §1

[4] = tested on: HT1080
Method in brief: as §1

[5] = tested on: SW684
Method in brief: as §1

[6] = tested on: SW1353
Method in brief: as §1

[7] = tested on: KHOS-240S
Method in brief: as §1

[8] = tested on: SYO-1
Method in brief: as §1

[9] = tested on: KHOS-NP
Method in brief: as §1

[10] = tested on: SW872
Method in brief: as §1

[11] = tested on: SK-LMS-1
Method in brief: as §1

[12] = tested on: G401
Method in brief: as §1

O=S(=O)(c1cccc2c(O)nccc12)N1CCCNCC1 [Hydroxyfasudil]
Conditions | relative viability
[1], 0.00017 µM | 0.996
[1], 0.00051 µM | 1.02
[1], 0.00152 µM | 1
[1], 0.00457 µM | 1.01
[1], 0.01372 µM | 1.01
[1], 0.04115 µM | 1.011
[1], 0.1235 µM | 1.03
[1], 0.3704 µM | 1.04
[1], 1.111 µM | 1.03
[1], 3.333 µM | 1.04
[1], 10 µM | 1.06
[2], 0.00017 µM | 1.087
[2], 0.00051 µM | 0.998
[2], 0.00152 µM | 1.05
[2], 0.00457 µM | 1.004
[2], 0.01372 µM | 0.967
[2], 0.04115 µM | 0.969
[2], 0.1235 µM | 0.97
[2], 0.3704 µM | 0.962
[2], 1.111 µM | 0.95
[2], 3.333 µM | 0.887
[2], 10 µM | 0.853
[3], 0.00017 µM | 1.089
[3], 0.00051 µM | 1.14
[3], 0.00152 µM | 1.16
[3], 0.00457 µM | 1.14
[3], 0.01372 µM | 1.15
[3], 0.04115 µM | 1.16
[3], 0.1235 µM | 1.15
[3], 0.3704 µM | 1.16
[3], 1.111 µM | 1.17
[3], 3.333 µM | 1.17
[3], 10 µM | 1.18
[4], 0.00017 µM | 1.1
[4], 0.00051 µM | 1.09
[4], 0.00152 µM | 1.13
[4], 0.00457 µM | 1.06
[4], 0.01372 µM | 1.1
[4], 0.04115 µM | 1.099
[4], 0.1235 µM | 1.102
[4], 0.3704 µM | 1.1
[4], 1.111 µM | 1.139
[4], 3.333 µM | 1.1
[4], 10 µM | 1.1
[5], 0.00017 µM | 1.16
[5], 0.00051 µM | 1.21
[5], 0.00152 µM | 1.2
[5], 0.00457 µM | 1.16
[5], 0.01372 µM | 1.16
[5], 0.04115 µM | 1.15
[5], 0.1235 µM | 1.14
[5], 0.3704 µM | 1.15
[5], 1.111 µM | 1.12
[5], 3.333 µM | 1.06
[5], 10 µM | 1.02
[6], 0.00017 µM | 1.06
[6], 0.00051 µM | 1.07
[6], 0.00152 µM | 1.05
[6], 0.00457 µM | 1.07
[6], 0.01372 µM | 1.01
[6], 0.04115 µM | 1.01
[6], 0.1235 µM | 1.038
[6], 0.3704 µM | 1.036
[6], 1.111 µM | 0.96
[6], 3.333 µM | 0.913
[6], 10 µM | 0.775
[7], 0.00017 µM | 1.1
[7], 0.00051 µM | 1.1
[7], 0.00152 µM | 1.1
[7], 0.00457 µM | 1.11
[7], 0.01372 µM | 1.1
[7], 0.04115 µM | 1.1
[7], 0.1235 µM | 1.11
[7], 0.3704 µM | 1.1
[7], 1.111 µM | 1.04
[7], 3.333 µM | 0.998
[7], 10 µM | 0.906
[8], 0.00017 µM | 1
[8], 0.00051 µM | 0.996
[8], 0.00152 µM | 0.97
[8], 0.00457 µM | 0.993
[8], 0.01372 µM | 0.96
[8], 0.04115 µM | 0.96
[8], 0.1235 µM | 0.983
[8], 0.3704 µM | 0.894
[8], 1.111 µM | 0.919
[8], 3.333 µM | 0.904
[8], 10 µM | 0.846
[9], 0.00017 µM | 1.09
[9], 0.00051 µM | 1.09
[9], 0.00152 µM | 1.086
[9], 0.00457 µM | 1.1
[9], 0.01372 µM | 1.09
[9], 0.04115 µM | 1.1
[9], 0.1235 µM | 1.08
[9], 0.3704 µM | 1.07
[9], 1.111 µM | 1.07
[9], 3.333 µM | 1.049
[9], 10 µM | 1.04
[10], 0.00017 µM | 1.12
[10], 0.00051 µM | 1.11
[10], 0.00152 µM | 1.09
[10], 0.00457 µM | 1.1
[10], 0.01372 µM | 1.07
[10], 0.04115 µM | 1.11
[10], 0.1235 µM | 1.07
[10], 0.3704 µM | 1.07
[10], 1.111 µM | 1.08
[10], 3.333 µM | 1.03
[10], 10 µM | 0.964
[11], 0.00017 µM | 1.01
[11], 0.00051 µM | 1.06
[11], 0.00152 µM | 1.01
[11], 0.00457 µM | 1.06
[11], 0.01372 µM | 1.04
[11], 0.04115 µM | 1.06
[11], 0.1235 µM | 0.983
[11], 0.3704 µM | 0.99
[11], 1.111 µM | 0.99
[11], 3.333 µM | 0.987
[11], 10 µM | 0.869
[12], 0.00017 µM | 1.02
[12], 0.00051 µM | 1.05
[12], 0.00152 µM | 1.03
[12], 0.00457 µM | 1.05
[12], 0.01372 µM | 1.052
[12], 0.04115 µM | 1.05
[12], 0.1235 µM | 1.03
[12], 0.3704 µM | 1.03
[12], 1.111 µM | 1.038
[12], 3.333 µM | 1.01
[12], 10 µM | 0.944
